Converted amounts (≈) assume the structure as drawn. Where two headings read alike, the source gives them in different places.
Columns and labels:
[1] = test system: Mtb H37Rv (ATCC27294); assay: Antimycobacterial activity, microplate Alamar blue assay (MABA); type: cell-based, Mycobacterium tuberculosis; details: for antimycobacterial activity (in words): Mtb strain H37Rv; for MIC: Mycobacterium tuberculosis, Mtb H37Rv
[2] = test system: VERO cell line; assay: Cytotoxicity MTT assay; type: cell-based; details: Chlorocebus sabaeus, cytotoxicity in VERO cells, 72 h
Experimental: VERO cells (2 × 10^4 cells) were seeded into 96-well plates and incubated for 12 h. Serial dilutions of the compounds were mixed with the cell suspension in the plates. Both treated cells and blank and solvent controls were incubated for 72 h, followed by incubation with MTT (0.5 mg/mL) for another 4 h. The microplates were measured at 570 nm using a multimode reader (Infinite M200, Tecan). The percentage of viable cells was calculated as the mean with respect to the controls set to 100%. Triplicate wells were analyzed for each concentration. IC50 was defined as the concentration that reduced the viable cells by 50% compared to the untreated control cells. It was considered significant when the SI was more than 10.

[3] = test system: TB-infected macrophage model; assay: Macrophage assay (TB-infected macrophage model); type: cell-based, Mycobacterium tuberculosis; details: for EC90: Mycobacterium tuberculosis, Macrophage, 168 h, concentration causing 90% reduction in residual mycobacterial growth after 7 days; for EC99: concentration causing 99% reduction in residual mycobacterial growth after 7 days
[4] = test system: C. albicans (ATCC90028); assay: Antifungal activity, broth microdilution; type: cell-based, Candida albicans; details: Candida albicans ATCC 90028, read-out: MIC
Experimental: (§1) All synthesized compounds and the positive control drugs amphotericin B and ketoconazole were tested for their in vitro antifungal activity. Antifungal activity was evaluated against four fungi, C. albicans (ATCC90028), C. tropicalis (ATCC7349), A. fumigatus (3.5352), and C. neoformans (2.3201), by broth microdilution according to the protocols from the NCCLS (Jiang et al., [2014]). Briefly, all tested compounds were dissolved in DMSO, and the solutions were diluted with fresh broth medium. All of the fungi-seeded broth (1 × 10^5 colony-forming units [CFU]/mL) were prepared in RPMI 1640 medium and added into the serially diluted drug solution. The tubes were incubated at 28°C, and the MIC (μg/mL) was recorded 72–96 h post-incubation. Broth control (without fungi), growth controls (with fungi and without drug), solvent (DMSO) control, and drug control for both test drugs and standard drugs were set under identical conditions. The minimum drug concentration in the tubes in which no apparent growth of the organism was observed represented the MIC of the compounds.

[5] = test system: A. fumigatus (3.5352); assay: Antifungal activity, broth microdilution; type: cell-based; details: Aspergillus fumigatus; A. fumigatus 3.5352; read-out: MIC
Experimental: as §1

[6] = test system: C. neoformans (2.3201); assay: Antifungal activity, broth microdilution; type: cell-based; details: Cryptococcus neoformans; C. neoformans 2.3201; read-out: MIC
Experimental: as §1

[7] = test system: C. tropicalis (ATCC7349); assay: Antifungal activity, broth microdilution; type: cell-based; details: Candida tropicalis, C. tropicalis ATCC 7349, read-out: MIC
Experimental: as §1

[8] = test system: Candida albicans, Candida tropicalis, Aspergillus fumigatus, and Cryptococcus neoformans; assay: Antifungal activity, broth microdilution, stated for the four fungi together; type: cell-based; details: C. albicans, C. tropicalis, A. fumigatus, C. neoformans together; read-out: MIC (antifungal, over the four fungi)
Experimental: as §1

[9] = test system: M. tuberculosis (Mtb) strain H37Rv; parameters: method as in Ortega et al., 2001; Vicente et al., 2009; details: ref Ortega et al., 2001, Vicente et al., 2009; cited from earlier work
[10] = repeated in Table 5 for the 3D-QSAR models, read-out: MIC
[11] = experimental pMIC, Table 5, read-out: pMIC exp (converted)

Compound | antimycobacterial activity (in words) [1] | MIC [1, 10] | MIC [1, 11] | IC50 [2] | EC90 [3] | EC99 [3] | MIC [4] | MIC [5] | MIC [6] | MIC [7] | MIC [8] | melting point | MIC [9]
O=C1CSC(c2c[n+]([O-])c3ccc(F)cc3[n+]2[O-])N1c1ccc(Cl)cc1 (stereo not shown) [2u, 7-F-2-(3′-P-chlorophenyl-4′(5H)-thiazolidinone)-quinoxaline-1,4-di-N-oxide] | good antimycobacterial activity | 1.56 µg/mL | 3.99 µM | 91.2 µg/mL (≈ 233 µM) | 0.84 µg/mL (≈ 2.14 µM) | 3.27 µg/mL | 4 µg/mL (≈ 10.2 µM) | 2 µg/mL (≈ 5.1 µM) | 4 µg/mL (≈ 10.2 µM) | 4 µg/mL (≈ 10.2 µM) | 2 to 4 µg/mL (≈ 5.1 to 10.2 µM) | 249 to 252 °C | –
O=C1CSC(c2c[n+]([O-])c3ccc(Cl)cc3[n+]2[O-])N1c1ccc(F)cc1 (stereo not shown) [2y, 7-Cl-2-(3′-P-fluorophenyl-4′(5H)-thiazolidinone)-quinoxaline-1,4-di-N-oxide] | good antimycobacterial activity | 1.56 µg/mL | 3.99 µM | 107 µg/mL (≈ 273 µM) | 1.33 µg/mL (≈ 3.39 µM) | 4.58 µg/mL | 2 µg/mL (≈ 5.1 µM) | 4 µg/mL (≈ 10.2 µM) | 2 µg/mL (≈ 5.1 µM) | 4 µg/mL (≈ 10.2 µM) | 2 to 4 µg/mL (≈ 5.1 to 10.2 µM) | 251 to 253 °C | –
O=C1CSC(c2c[n+]([O-])c3ccc(Cl)cc3[n+]2[O-])N1c1ccc(Cl)cc1 (stereo not shown) [2z, 7-Cl-2-(3′-P-chlorophenyl-4′(5H)-thiazolidinone)-quinoxaline-1,4-di-N-oxide] | good antimycobacterial activity | 1.56 µg/mL | 3.85 µM | 94.6 µg/mL (≈ 232 µM) | 0.92 µg/mL (≈ 2.25 µM) | 3.93 µg/mL | 4 µg/mL (≈ 9.8 µM) | 4 µg/mL (≈ 9.8 µM) | 4 µg/mL (≈ 9.8 µM) | 4 µg/mL (≈ 9.8 µM) | 2 to 4 µg/mL (≈ 4.9 to 9.8 µM) | 252 to 255 °C | –
Cc1ccc2c(c1)[n+]([O-])c(C#N)c(-c1ccc(F)cc1)[n+]2[O-] [7-methyl-3-(4′-fluoro)phenylquinoxaline-2-carbonitrile-1,4-di-N-oxide] | – | – | – | – | – | – | – | – | – | – | – | – | < 0.2 µg/mL

From article PMC7424068, “Design, Synthesis, and Biological Evaluation of Novel Thiazolidinone-Containing Quinoxaline-1,4-di-N-oxides as Antimycobacterial and Antifungal Agents” (Frontiers in Chemistry, 2020)
